Patent publication US9586959B2, “Substituted tricyclic heterocycles as histamine 4 receptor inhibitors” (C&C RESEARCH LABORATORIES, priority 2011, dated 2017)

Key:
[1] = target: human histamine 4 receptor (hH4R) (Homo sapiens (Human), UniProt Q9H3N8); test: Binding affinity of human histamine 4 receptor (hH4R), [3H] labeled histamine displacement; conditions: hH4R-overexpressed cell membrane, [3H] histamine
Method: 20 μL of the prepared compound solution was transferred to each well of a 96-well plate, and then 20 μL of 100 μM histamine diluted with analysis buffer solution and 1% DMSO were transferred to each well to calculate non-specific binding and total binding degree. 25 μg of human histamine 4 receptor-overexpressed cell membrane (PerkinElmer) was diluted into 160 μL of analysis buffer solution and that was transferred to each well. [^3H] labeled histamine (PerkinElmer) was diluted into 1 μM concentration, 20 μL was allocated in each well, and then it was kept in a 27° C. incubator for 30 minutes. After the reaction, 200 μL of the mixture was transferred to a glass fiber plate in which 0.5% polyethylene amine was presoaked, and then non-binding [^3H] labeled histamine was removed in vacuum. After 4 times washing with 200 μL of washing buffer solution (50 mM tris-HCl, pH 7.4), the plate was dried in a 37° C. oven for 18 hours. 100 μL of betascint cocktail solution was added to each well, and after 1 hour CPM (count per minute) value of [^3H] labeled histamine was measured by using Wallac beta-counter TriLux.

[2] = target: human histamine 3 receptor (hH3R) (Homo sapiens (Human), UniProt Q9Y5N1); test: Binding affinity of human histamine 3 receptor (hH3R), [3H] labeled N-α-methylhistamine displacement; conditions: hH3R-overexpressed cell membrane, [3H] N-α-methylhistamine
Method: 10 μL of the prepared compound solution was allocated in each well of a 96-well plate, and then 10 μL of 200 μM (R)(−)-α-methylhistamine (RaMH) diluted with analysis buffer and 1% of DMSO were transferred to each well to calculate non-specific binding and total binding degree. 15 μg of human histamine 3 receptor-overexpressed cell membrane (PerkinElmer) was diluted with 180 μL of analysis buffer solution (50 mM tris-HCl pH 7.4, 5 mM MgCl2), and that was transferred to each well. [^3H] labeled Na-methylhistamine (PerkinElmer) was diluted into […], 10 μL of that was added to each well, and then it was kept in a 27° C. incubator for 30 minutes. After the reaction, 200 μL of the mixture was transferred to a glass fiber plate in which 0.5% polyethylene amine was presoaked, and then non-binding [^3H] labeled Na-methylhistamine was removed in vacuum. After 5 times washing with 200 μL of washing buffer solution (50 mM tris-HCl, pH 7.4), the plate was dried in a 37° C. oven for 18 hours. 100 μL of betascint cocktail solution was added to each well, and after 1 hour CPM of [^3H] labeled N-α-methylhistamine was measured by using Wallac beta-counter TriLux. The binding affinity (IC50) of the human histamine 3 receptor for the present invention was analyzed by an Excel program, and the results of analysis are shown in Table 2.

[3] = Metabolic stability in mouse microsome; conditions: mouse microsome 1 mg/mL, 5 μM compound, 1 mM NADPH
[4] = Metabolic stability in human microsome; conditions: human microsome 1 mg/mL, 5 μM compound, 1 mM NADPH
[5] = Solubility in artificial gastrointestinal tract solution; type: physicochemical; conditions: artificial gastrointestinal tract solution, thermodynamic from solid
Method: 2.0 g of sodium chloride was added in 7.0 mL of 37% of hydrochloric acid and water to make the total volume of 1 L. The pH was adjusted to exactly 1.2 with 1N sodium hydroxide or 1N hydrochloric acid. A small amount (20 mL) of this solution was taken and added in 25 μL of triton X-100 to make the total volume of 25 mL.
0.348 g sodium hydroxide, 3.438 g NaH2PO4, 6.186 g sodium chloride and water were added to make the total volume of 1 L. The pH was adjusted to exactly 6.5 with 1N sodium hydroxide or 1N hydrochloric acid. A small amount (20 mL) of this solution was taken and 41.25 mg of sodium taurocholate hydrate and 25 μL of 750 mM lecithin dissolved in ethanol was added to make the total volume of 25 mL.
The heated test sample solutions were filtered to remove undissolved compounds therein. Finally, 100 μL of the completely compound-dissolved solution was sampled and 100 μL of CH3CN was added thereto to make the test sample solution. For each analysis of the test sample solution, the solubility was measured by using liquid chromatography.

Chain of human histamine 3 receptor (hH3R) (Q9Y5N1 whole entry): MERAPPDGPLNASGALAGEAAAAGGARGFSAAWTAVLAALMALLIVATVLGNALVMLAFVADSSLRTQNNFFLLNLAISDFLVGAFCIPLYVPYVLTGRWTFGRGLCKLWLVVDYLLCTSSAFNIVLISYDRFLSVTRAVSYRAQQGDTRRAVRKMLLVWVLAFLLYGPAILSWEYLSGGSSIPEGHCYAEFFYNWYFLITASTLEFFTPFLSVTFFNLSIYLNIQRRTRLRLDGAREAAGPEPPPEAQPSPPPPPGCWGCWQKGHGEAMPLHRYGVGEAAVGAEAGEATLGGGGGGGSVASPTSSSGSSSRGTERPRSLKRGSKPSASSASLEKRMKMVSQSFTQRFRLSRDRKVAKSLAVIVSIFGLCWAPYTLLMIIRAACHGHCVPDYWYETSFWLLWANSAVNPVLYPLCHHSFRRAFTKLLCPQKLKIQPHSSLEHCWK

Structure (SMILES)	IC50 [1]	IC50 [2]	Metabolic stability (CLh. int), Mouse [3]	Metabolic stability (CLh. int), Human [4]	IC50 ([1]; 2,2,2-trifluoroacetate)	solubility at 1 h ([5]; fassgf or other biorelevant, first solution pH 1.2, 2 mg/mL sample, 37° C. 1 hour)	solubility at 2 h ([5]; fassif, second solution pH 6.5, 2 mg/mL sample, 37° C. 2 hours)
Clc1cc2c(nc1Cl)nc(N1CCNCC1)c1nncn12 [Compound 62, 7,8-Dichloro-4-(piperazin-1-yl)pyrido[2,3-e][1,2,4]triazolo[4,3-a]pyrazine]	510 nM	> 100000 nM	7980 µL/min/mg	4170 µL/min/mg	–	–	–
Clc1cnc2nc(N3C[C@@H]4C[C@H]3CN4)c3nncn3c2c1 [Compound 77, 4-((1S,4S)-2,5-diazabicyclo[2.2.1]heptan-2-yl)-8-chloropyrido[2,3-e][1,2,4]triazolo[4,3-a]pyrazine]	490 nM	> 100000 nM	320 µL/min/mg	1330 µL/min/mg	–	–	–
N#Cc1cnc2nc(N3CCNCC3)c3nncn3c2c1 [Compound 26, 4-(piperazin-1-yl)pyrido[2,3-e][1,2,4]triazolo[4,3-a]pyrazin-8-carbonitrile]	220 nM	> 100000 nM	6740 µL/min/mg	2450 µL/min/mg	–	–	–
CNC1CN(c2nc3nc(Cl)c(Cl)cc3n3cnnc23)C1 [Compound 27, 1-(7,8-Dichloropyrido[2,3-e][1,2,4]triazolo[4,3-a]pyrazin-4-yl)-N-methylazetidin-3-amine]	–	> 100000 nM	7270 µL/min/mg	1240 µL/min/mg	–	–	–
CNC1CN(c2nc3ncc(Br)cc3n3cnnc23)C1.O=C(O)C(F)(F)F [Compound 104, 1-(8-bromopyrido[2,3-e][1,2,4]triazolo[4,3-a]pyrazin-4-yl)-N-methylazetidin-3-amine 2,2,2-trifluoroacetate]	–	> 100000 nM	–	–	30 nM	1510 µg/mL	1560 µg/mL
CN(O)C1CN(c2nc3ncc(Br)cc3n3cnnc23)C1 [Compound 102, N-(1-(8-bromopyrido[2,3-e][1,2,4]triazolo[4,3-a]pyrazin-4-yl)azetidin-3-yl)-N-methylhydroxylamine]	–	> 100000 nM	6780 µL/min/mg	1990 µL/min/mg	–	–	–
Cn1cc2c(n1)c(N1CCNCC1)nc1ncc(Cl)cc12 [Compound 45, 8-Chloro-2-methyl-4-(piperazin-1-yl)-2H-pyrazolo[3,4-c][1,8]naphthylidine]	–	> 100000 nM	12990 µL/min/mg	3260 µL/min/mg	–	–	–

The next lines start with results.

IC50 [1]	IC50 [2]	Metabolic stability (CLh. int), Mouse [3]	Metabolic stability (CLh. int), Human [4]	Structure (SMILES)	IC50 ([1]; 2,2,2-trifluoroacetate)	solubility at 1 h ([5]; fassgf or other biorelevant, first solution pH 1.2, 2 mg/mL sample, 37° C. 1 hour)	solubility at 2 h ([5]; fassif, second solution pH 6.5, 2 mg/mL sample, 37° C. 2 hours)
130 nM	> 100000 nM	5090 µL/min/mg	2840 µL/min/mg	Clc1cnc2nc(N3CCNCC3)n3nc(C4CC4)nc3c2c1 [Compound 39, 9-Chloro-2-cyclopropyl-5-(piperazin-1-yl)pyrido[3,2-e][1,2,4]triazolo[1,5-c]pyrimidine]	–	–	–
–	> 100000 nM	14900 µL/min/mg	7180 µL/min/mg	CN1CCN(c2nc3ncc(Cl)cc3c3nc(C4CC4)nn23)CC1 [Compound 38, 9-Chloro-2-cyclopropyl-5-(4-methylpiperazin-1-yl)pyrido[3,2-e][1,2,4]triazolo[1,5-c]pyrimidine]	–	–	–
270 nM	–	7130 µL/min/mg	4870 µL/min/mg	CN1CCN(c2nc3nc(C#N)c(Cl)cc3n3cnnc23)CC1 [Compound 21, 8-Chloro-4-(4-methylpiperazin-1-yl)pyrido[2,3-e][1,2,4]triazolo[4,3-a]pyrazin-7-carbonitrile]	–	–	–
280 nM	–	3380 µL/min/mg	2340 µL/min/mg	CN1CCN(c2nc3ncc(C(F)(F)F)cc3n3cnnc23)CC1 [Compound 53, 4-(4-Methylpiperazin-1-yl)-8-(trifluoromethyl)pyrido[2,3-e][1,2,4]triazolo[4,3-a]pyrazine]	–	–	–
